Consider two compounds from patent US20030220329A1, “Method of improving beta-adrenergic receptor function” (DUKE UNIVERSITY, priority 1999, published 2003).

Assay [1] is described as follows: Fat pad weight and estimate of percent body fat. It counts as in vivo, B6 mice. To be noted: wet weight after 4 weeks of drug treatment. The method, then: Animals and Diets. Seventy-five 4-week old B6 male mice were obtained from Jackson Laboratories (Bar Harbor, Me.). The animals were housed 5 per cage in a temperature controlled (22° C.) room with a 12 hour light/dark cycle (lights off at 19:00). The HF and low fat (LF) experimental diets were manufactured by Research Diets (New Brunswick, N.J.), and contain 58% and 11% of calories from fat, respectively. The composition of these diets have been described in detail elsewhere (Surwit et al. Metabolism 44:645-651 (1995)). A group of 60 mice were fed the HF diet for the first four weeks of the study; the remaining 15 mice were fed the LF diet. The mice assigned to the LF diet were maintained on this diet throughout the study as a reference group of lean control mice. At week 4, all HF-fed mice were assigned to 4 groups of 15 mice each. The first group remained on the HF diet throughout the study as the “obese” control group. […] This dose had originally been recommended by Dr. Thomas Claus, of Lederle Laboratories and found to be differentially effective in reducing obesity in obesity-prone B6 and obesity-resistant A/J mice (Collins et al, Obes. Res. 43:83-86 5:6S (1997)). The Dz concentration in the diets was 3.2 g/kg (0.32%) was determined to be the maximally effective dose for weight-reduction in dose-response pilot studies. Tissue Collection. After 4 weeks of drug treatment, a subset of 10 animals from each group was killed. […] Percent Body Fat. The percent body fat was estimated from the weight of the epididymal fat pad. It has been shown that, as a proportion of total body weight, the epididymal fat pad weight is highly correlated with percent body fat (Rogers et al, Brit. J. Nutr. 43:83-86 (1980), Eisen et al, Growth 45:100-107 (1981)).

A short description of assay [2]: Fasting plasma glucose, insulin and leptin. The assay is classed as in vivo, B6 mice. To be noted: for Fasting plasma glucose: termination of / throughout the study. The method, then: (§1) Animals and Diets. Seventy-five 4-week old B6 male mice were obtained from Jackson Laboratories (Bar Harbor, Me.). The animals were housed 5 per cage in a temperature controlled (22° C.) room with a 12 hour light/dark cycle (lights off at 19:00). The HF and low fat (LF) experimental diets were manufactured by Research Diets (New Brunswick, N.J.), and contain 58% and 11% of calories from fat, respectively. The composition of these diets have been described in detail elsewhere (Surwit et al. Metabolism 44:645-651 (1995)). A group of 60 mice were fed the HF diet for the first four weeks of the study; the remaining 15 mice were fed the LF diet. The mice assigned to the LF diet were maintained on this diet throughout the study as a reference group of lean control mice. At week 4, all HF-fed mice were assigned to 4 groups of 15 mice each. The first group remained on the HF diet throughout the study as the “obese” control group. The remaining 3 groups of mice were fed the HF diet containing either the β3AR agonist CL316,243 (CL), diazoxide (Dz) or the combination of the two compounds (CLDz). The CL concentration in the diets was 1 mg/kg (0.001%). This dose had originally been recommended by Dr. Thomas Claus, of Lederle Laboratories and found to be differentially effective in reducing obesity in obesity-prone B6 and obesity-resistant A/J mice (Collins et al, Obes. Res. 43:83-86 5:6S (1997)). The Dz concentration in the diets was 3.2 g/kg (0.32%) was determined to be the maximally effective dose for weight-reduction in dose-response pilot studies.
Glucose, Insulin, and Leptin. Samples for analysis of insulin, glucose, and leptin were collected as previously reported (Surwit et al. Metabolism 44:645-651 (1995), Collins et al., Endocrinology 138:405-413 (1997)) at day 24 (4 days before the diets were changed), at day 32 (4 days after the change) and biweekly thereafter. In all cases, food was removed 8 hours before samples were collected. Glucose was analyzed by the glucose oxidase method (Beckman Glucose Analyzer II). Insulin and leptin concentrations were determined by double antibody radioimmunoassay (Linco Research, St. Louis. Mo.). The insulin assay was based on a rat standard and the leptin assay used a mouse standard.

Assay [3] deals with glucose transport into white adipose tissue and muscle. Nature of the assay: Glucose transport into adipose and muscle tissues (14C 2-deoxyglucose accumulation). The assay is classed as in vivo, B6 mice. To be noted: compared to HF control group. The procedure: as §1
Glucose Transport. Basal glucose transport into white adipose tissue and muscle was assessed following the method of Skillman and Fletcher (Skillman et al, Exp. Clin. Endocrinol. 87:288-298 (1986)) with minor modifications. Five mice from each group were injected i.p. with 50 mg/kg 2-deoxyglucose (20 μCi/kg ^14C 2-deoxyglucose) mixed with 2-deoxyglucose (final specific activity was 66 μCi/mmole). Twenty minutes later the mice were killed by cervical dislocation. […] The samples were neutralized with 1 M HCl and the ^14C content determined.

The test system of assay [4] is β3AR mRNA. Nature of the assay: Northern blot, β3AR mRNA in EWAT. The note with it: normalized to cyclophilin. It counts as in vivo, B6 mice.
The subject of assay [5] is UCP1 mRNA. Nature of the assay: Northern blot, UCP1 mRNA in IBAT and RP. It counts as in vivo, B6 mice. To be noted: compared to the HF control.
Assay [6] concerns the target T1, β3AR (Mus musculus, UniProt P25962).
T1 construct: from tissue
Nature of the assay: β3AR-stimulated adenylyl cyclase activity in EWAT plasma membranes from treated animals. The assay is classed as biochemical, B6 mice. The note with it: membranes from treated HF-fed animals. The procedure: (§2) Tissue Collection. After 4 weeks of drug treatment, a subset of 10 animals from each group was killed. The epididymal white adipose tissue (EWAT), retroperitoneal (RP) fat, interscapular brown adipose tissue (IBAT) fat pads and gastrocnemius muscle were removed, trimmed, washed, and all tissues were flash-frozen in liquid nitrogen and stored at −80° C. for later determination of β3AR, (EWAT) UCP1 expression (IBAT and RP), UCP2 and 3 expression (IBAT) as well as β3AR-stimulated adenylyl cyclase activity (EWAT).
Preparation of plasma membranes and adenylyl cyclase assay. Adipose tissue was isolated from each group of animals. The tissues from 4 mice per group were pooled and minced and then plasma membranes prepared as previously described (Collins et al, Mol. Endocrinol. 8:518-527 (1994)). Adenylyl cyclase activity was measured using established methods, and the cAMP formed was measured by RIA (Harper et al, J. Cyclic Nucleotide Res. 1:207-218 (1975)) using a polyclonal anti-serum to cAMP (Gettys et al, J. Biol. Chem. 266:15949-15955 (1991)). Protein concentrations were determined by the Bradford method (Bradford. Anal. Biochem 72:248-254 (1976)).

Assay [7] is described as follows: Postprandial plasma triglycerides and non-esterified fatty acids. It counts as in vivo, B6 mice. To be noted: at termination of the study, HF diet + drug for 4 weeks. The procedure: Animals and Diets. Seventy-five 4-week old B6 male mice were obtained from Jackson Laboratories (Bar Harbor, Me.). The animals were housed 5 per cage in a temperature controlled (22° C.) room with a 12 hour light/dark cycle (lights off at 19:00). The HF and low fat (LF) experimental diets were manufactured by Research Diets (New Brunswick, N.J.), and contain 58% and 11% of calories from fat, respectively. The composition of these diets have been described in detail elsewhere (Surwit et al. Metabolism 44:645-651 (1995)). A group of 60 mice were fed the HF diet for the first four weeks of the study; the remaining 15 mice were fed the LF diet. The mice assigned to the LF diet were maintained on this diet throughout the study as a reference group of lean control mice. At week 4, all HF-fed mice were assigned to 4 groups of 15 mice each. The first group remained on the HF diet throughout the study as the “obese” control group. […] The Dz concentration in the diets was 3.2 g/kg (0.32%) was determined to be the maximally effective dose for weight-reduction in dose-response pilot studies.
Triglycerides and Non-Esterified Fatty Acids. At the termination of the study, a postprandial plasma sample was collected and analyzed for triglyceride and non-esterified fatty acid (NEFA) concentrations using kits from WAKO Diagnostics (Richmond. Va.).

The test system of assay [8] is UCP3. The assay is described as follows: UCP3 expression in IBAT. To be noted: HF-fed B6 mice. It counts as in vivo. The procedure: as §2
Isolation and Analysis of RNA. Total cellular RNA was prepared using the tissues of 6 mice per group by the cesium chloride gradient method as detailed (Chirgwin et al, Biochemistry 18:5294-5399 (1979)). For Northern blot hybridization, RNA was denatured by the glyoxal procedure, fractionated through 1.2% agarose gels, and blotted onto Biotrans (ICN) nylon membranes (Collins et al, J. Biol. Chem. 263:9067-9070 (1988)). […] A rat cDNA probe for cyclophilin was used as an internal hybridization/quantitation standard. Blots were hybridized and washed as previously described (Collins et al, Mol. Endocrinol. 8:518-527 (1994), (Thomas. Proc. Natl. Acad. Sci. USA 77:5201-5205 (1980)). The intensity of hybridization signals was quantified by PhosphorImager (ImageQuant/Storm) and normalized to the values for cyclophilin.

Marks after values point to notes of the source that are not given here.

T1 sequence (P25962 whole entry): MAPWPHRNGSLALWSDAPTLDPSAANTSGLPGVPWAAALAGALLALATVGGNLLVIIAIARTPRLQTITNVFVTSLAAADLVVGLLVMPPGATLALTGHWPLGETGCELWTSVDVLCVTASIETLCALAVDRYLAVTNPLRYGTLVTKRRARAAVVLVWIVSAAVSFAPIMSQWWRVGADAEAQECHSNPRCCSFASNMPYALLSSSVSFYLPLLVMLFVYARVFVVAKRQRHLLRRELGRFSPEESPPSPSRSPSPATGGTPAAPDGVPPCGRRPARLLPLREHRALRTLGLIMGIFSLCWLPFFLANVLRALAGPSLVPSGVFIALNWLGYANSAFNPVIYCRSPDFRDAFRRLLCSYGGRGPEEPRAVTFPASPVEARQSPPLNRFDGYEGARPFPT

`C[C@H](Cc1ccc2c(c1)OC(C(=O)[O-])(C(=O)[O-])O2)NC[C@H](O)c1cccc(Cl)c1.[Na+].[Na+]` [CL, disodium (R,R)-5-[2[[2-(3-chlorophenyl)-2-hydroxyethyl]-amino]propyl]-1,3-benzodioxole-2,2-dicarboxylate]: in assay [1], the “Epididymal Fat Pad Weight” value is 0.943 +/− 0.129^b grams and the “Retroperitoneal Fat Pad Weight” value is 0.200 +/− 0.024^b grams. The Fasting plasma glucose result in assay [2] (compared to pretreatment) was “returned to the pretreatment values”. The “Glucose transport into EWAT” value in assay [3] is reported as “improved glucose transport into EWAT”. The “Glucose transport into RP” value in assay [3] (ANOVA trend p=0.07) is “enhanced glucose transport”. Further, in assay [4], the “β3AR mRNA levels in EWAT” value is listed as “failed to restore β3AR expression or function”. The “UCP1 mRNA levels in IBAT” value in assay [5] was “greater increase in UCP1 expression”. Also, in assay [6], the “Adenylyl cyclase activity in response to CL in EWAT plasma membranes” value is recorded as “a general decrease in adenylyl cyclase activity”. The NEFA in assay [7] is 0.69 +/− 0.04^b mEq/L.

Regarding `CC1=NS(=O)(=O)c2cc(Cl)ccc2N1` [Dz, diazoxide], in assay [1], the “Epididymal Fat Pad Weight” value is on record as 0.691 +/− 0.083^b,c grams and the “Retroperitoneal Fat Pad Weight” value is listed as 0.123 +/− 0.014^b,c grams. The Fasting plasma insulin result in assay [2] (end of / throughout the study, compared to pretreatment) is listed as “remained significantly below pretreatment levels throughout the study”. Further, the Leptin in assay [2] (plasma, at the conclusion of the study, HF diet + drug for 4 weeks) is 4.2 +/− 0.8^c ng/ml. In addition, in assay [2] (compared to pretreatment), the Fasting plasma glucose result is reported as “remained lower than pretreatment levels throughout the study”. In assay [8], the “UCP3 expression in IBAT” value is recorded as “significant increase in UCP3 expression in IBAT”. The “Glucose transport into EWAT” value in assay [3] is recorded as “did not reach a statistically significant level”. Further, in assay [4], the “β3AR mRNA levels in EWAT” value was “levels comparable to the LF fed controls”. For the same compound, the “UCP1 mRNA levels in IBAT” value in assay [5] is given as “greater increase in UCP1 expression”. In addition, in assay [6], the “Adenylyl cyclase activity in response to CL in EWAT plasma membranes” value is “restored the efficacy of the β3AR to stimulate adenylyl cyclase”. The NEFA in assay [7] is recorded as 0.82 +/− 0.08^b mEq/L.
